Laboratory results: patent publication US20110230493A1, “1-OXA-8-Azaspiro [4,5] Decabe-8-Carboxamide Compounds as FAAH Inhibitors” (Pfizer Inc., priority 2008, published 2011)
Marks after values point to notes of the source that are not given here.

What was measured:
[1] = biological target: T1, rat FAAH (Rattus norvegicus, UniProt P97612); test: FAAH assay, rat FAAH enzyme inactivation (kinact/Ki); type: biochemical; settings: oleamide 50 μM, 30° C.; for rFAAH kinact/Ki: in vitro, pH 7.4; for kinact/KI: pH 7.4, in vitro, read-out: rFAAH kinact/Ki
T1 construct: made in house; host or cells: E. coli
T1 sequence (P97612 1-579): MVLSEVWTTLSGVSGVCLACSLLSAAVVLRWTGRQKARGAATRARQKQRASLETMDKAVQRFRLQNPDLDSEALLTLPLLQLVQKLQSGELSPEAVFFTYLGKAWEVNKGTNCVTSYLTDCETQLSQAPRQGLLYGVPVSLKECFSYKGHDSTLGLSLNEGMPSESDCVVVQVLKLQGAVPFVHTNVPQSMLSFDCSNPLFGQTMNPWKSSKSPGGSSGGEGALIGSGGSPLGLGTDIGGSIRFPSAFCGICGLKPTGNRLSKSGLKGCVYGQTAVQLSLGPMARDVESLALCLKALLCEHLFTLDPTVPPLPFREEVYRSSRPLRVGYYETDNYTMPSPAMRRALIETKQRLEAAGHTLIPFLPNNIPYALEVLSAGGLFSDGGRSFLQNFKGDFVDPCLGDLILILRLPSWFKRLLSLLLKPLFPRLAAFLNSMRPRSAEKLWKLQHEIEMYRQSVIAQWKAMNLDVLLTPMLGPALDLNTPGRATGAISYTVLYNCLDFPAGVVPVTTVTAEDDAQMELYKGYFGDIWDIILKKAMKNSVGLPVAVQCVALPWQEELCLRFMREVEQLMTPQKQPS
Outline: (§1)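 Oleamide hydrolysis by 1-4 nM purified E. coli-expressed FAAH (substrate 50 μM = Km) coupled to GDH/NADH, pH 7.4 phosphate, 7.5% DMSO and EtOH, 30° C; A340 followed 90 min. kobs from mono-exponential fits; kinact/Ki from kobs-versus-concentration slope, multiplied by two.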

[2] = biological target: T2, human FAAH (Homo sapiens, UniProt O00519); test: FAAH assay, human FAAH enzyme inactivation (kinact/Ki); type: biochemical; settings: oleamide 50 μM, 30° C.; for hFAAH kinact/Ki: in vitro, pH 7.4; for kinact/KI: pH 7.4, in vitro, read-out: hFAAH kinact/Ki
T2 construct: made in house; host or cells: E. coli
T2 sequence (O00519 1-579): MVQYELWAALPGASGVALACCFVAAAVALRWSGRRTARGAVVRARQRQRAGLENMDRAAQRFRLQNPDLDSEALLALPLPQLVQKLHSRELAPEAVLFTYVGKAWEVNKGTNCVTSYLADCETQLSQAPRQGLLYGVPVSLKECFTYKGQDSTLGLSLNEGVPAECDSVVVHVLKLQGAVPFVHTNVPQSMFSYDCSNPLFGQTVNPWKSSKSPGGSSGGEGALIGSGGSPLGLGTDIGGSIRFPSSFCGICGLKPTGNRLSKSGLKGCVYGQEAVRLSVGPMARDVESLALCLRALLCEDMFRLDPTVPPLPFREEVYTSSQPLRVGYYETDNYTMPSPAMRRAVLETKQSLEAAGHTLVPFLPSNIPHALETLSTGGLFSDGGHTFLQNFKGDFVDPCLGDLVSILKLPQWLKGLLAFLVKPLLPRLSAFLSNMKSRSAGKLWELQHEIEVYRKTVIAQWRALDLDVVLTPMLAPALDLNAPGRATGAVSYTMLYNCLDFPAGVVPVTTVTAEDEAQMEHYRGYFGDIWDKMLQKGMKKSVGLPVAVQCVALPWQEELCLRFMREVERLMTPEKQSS
Outline: as §1

[3] = system: Male Sprague-Dawley Rats; test: In vivo Complete Freund's Adjuvant (CFA) efficacy assay, inhibition of allodynia; design: species or system rat; key: (+) indicates the test compound was determined to be efficacious at 3 mpk, oral dosing; (−) indicates the test compound was determined to not be efficacious at 3 mpk, oral dosing; settings: p < 0.05 vs vehicle group
Experimental: For additional information on the CFA efficacy assay, see Jayamanne et al., Brit. J. Pharmacol. 2006, 147, 281-288. Experiments were performed on adult Male Sprague-Dawley Rats (200 g-250 g). Inflammation was induced in the left hindpaw of the rat by an intra-plantar injection of 150 uL Complete Freund's Adjuvant (CFA) (SIGMA F5881). The CFA injection immediately induces local inflammation, paw swelling, and pain that persists for at least two weeks post-injection. Baseline paw withdrawal threshold (PWT) was measured to determine the percent inhibition of allodynia using a set of Von Frey Hairs on day 4 post injection as illustrated by the Dixon Up and Down Method (W. J. Dixon, Ann. Rev. Pharmacol. Toxicol. 1980, 20:441-462). […] Following Dose administration PWT threshold was evaluated again at four hours postdose. The Sprague-Dawley rats used in this assay were purchased from Harlan, 8520 Allison Pointe Blvd., Indianapolis, Ind., 46250, U.S.A. Sprague-Dawley rats are an outbred breed of albino rats first produced by the Sprague Dawley farms in Madison, Wis., U.S.A.
Percent Inhibition of Allodynia was determined by the formula: […]
ΔPWT measurements were averaged for each treatment group and statistical comparisons between groups were made using ANOVA and Dunnett's two-tailed test. […]

[4] = 3 mpk, oral dosing, PWT four hours postdose

SMILES	rFAAH kinact/Ki [1]	hFAAH kinact/Ki [2]	CFA Efficacy [3, 4]	kinact/KI [1]	kinact/KI [2]	CFA Efficacy ([3]; 25 mpk, intraperitoneal dosing)
Cc1noc(NC(=O)N2CCC3(CC2)CC(c2ccc(OCc4ccccc4Cl)c(Cl)c2)CO3)c1C (single isomer, unassigned) [Example 44, 3-{3-chloro-4-[(2-chlorobenzyl)oxy]phenyl}-N-(3,4-dimethylisoxazol-5-yl)-1-oxa-8-azaspiro[4.5]decane-8-carboxamide]	1950 M⁻¹ s⁻¹	1330 M⁻¹ s⁻¹	(+)			
Cc1noc(NC(=O)N2CCC3(CC2)CC(c2noc(-c4ccc(C(F)(F)F)cc4)n2)CO3)c1C (single isomer, unassigned) [Example 76, N-(3,4-dimethylisoxazol-5-yl)-3-{5-[4-(trifluoromethyl)phenyl]-1,2,4-oxadiazol-3-yl}-1-oxa-8-azaspiro[4.5]decane-8-carboxamide]	1150 M⁻¹ s⁻¹	3120 M⁻¹ s⁻¹	(+)			
Cn1nnnc1NC(=O)N1CCC2(CC1)CC(c1cccc(Cl)c1)CO2 (single isomer, unassigned) [Example 80, 3-(3-chlorophenyl)-N-(1-methyl-1H-tetrazol-5-yl)-1-oxa-8-azaspiro[4.5]decane-8-carboxamide]	5520 M⁻¹ s⁻¹	11400 M⁻¹ s⁻¹	(+)			
Cc1noc(NC(=O)N2CCC3(CC2)C[C@@H](c2cccc(-c4ccc(Cl)cc4)c2)CO3)c1C [Example 62, (3S)-3-(4′-chlorobiphenyl-3-yl)-N-(3,4-dimethylisoxazol-5-yl)-1-oxa-8-azaspiro[4.5]decane-8-carboxamide]			(+)	2260 M⁻¹ s⁻¹	2920 M⁻¹ s⁻¹	
Cn1nnnc1NC(=O)N1CCC2(CC1)CC(c1cccc(OC(F)(F)F)c1)CO2 (single isomer, unassigned) [Example 78, N-(1-methyl-1H-tetrazol-5-yl)-3-[3-(trifluoromethoxy)phenyl]-1-oxa-8-azaspiro[4.5]decane-8-carboxamide]	3840 M⁻¹ s⁻¹	7100 M⁻¹ s⁻¹	(+)			
Cc1noc(NC(=O)N2CCC3(CC2)C[C@@H](c2ccc(OCc4ccc(Cl)cc4)cc2)CO3)c1C [Example 50, (3S)-3-{4-[(4-chlorobenzyl)oxy]phenyl}-N-(3,4-dimethylisoxazol-5-yl)-1-oxa-8-azaspiro[4.5]decane-8-carboxamide]			(−)	9110 M⁻¹ s⁻¹	7470 M⁻¹ s⁻¹	
O=C(Nc1cccnn1)N1CCC2(CC1)C[C@H](c1cccc(Oc3ccc(Cl)cn3)c1)CO2 [Example 11, (3R)-3-{3-[(5-chloropyridin-2-yl)oxy]phenyl}-N-pyridazin-3-yl-1-oxa-8-azaspiro[4.5]decane-8-carboxamide]			(+)	1020 M⁻¹ s⁻¹	2420 M⁻¹ s⁻¹	
Cc1noc(NC(=O)N2CCC3(CC2)CC(c2ccc(OCc4cccc(Cl)c4)c(Cl)c2)CO3)c1C (single isomer, unassigned) [Example 45, 3-{3-chloro-4-[(3-chlorobenzyl)oxy]phenyl}-N-(3,4-dimethylisoxazol-5-yl)-1-oxa-8-azaspiro[4.5]decane-8-carboxamide]			(+)	7130 M⁻¹ s⁻¹	6240 M⁻¹ s⁻¹	
Cn1nnnc1NC(=O)N1CCC2(CC1)CC(c1noc(-c3ccc(C(F)(F)F)cc3)n1)CO2 (single isomer, unassigned) [Example 82, N-(1-methyl-1H-tetrazol-5-yl)-3-{5-[4-(trifluoromethyl)phenyl]-1,2,4-oxadiazol-3-yl}-1-oxa-8-azaspiro[4.5]decane-8-carboxamide]			(+)	1500 M⁻¹ s⁻¹	5110 M⁻¹ s⁻¹	
Cn1nnnc1NC(=O)N1CCC2(CC1)CC(c1noc(-c3ccc(C(F)(F)F)cc3)n1)CO2 (single isomer, unassigned) [Example 83, N-(1-methyl-1H-tetrazol-5-yl)-3-{5-[4-(trifluoromethyl)phenyl]-1,2,4-oxadiazol-3-yl}-1-oxa-8-azaspiro[4.5]decane-8-carboxamide]	974 M⁻¹ s⁻¹	5480 M⁻¹ s⁻¹	(+)			
Cc1noc(NC(=O)N2CCC3(CC2)C[C@@H](c2ccc(OCc4ccc(F)cc4)cc2)CO3)c1C [Example 42, (3S)—N-(3,4-dimethylisoxazol-5-yl)-3-{4-[(4-fluorobenzyl)oxy]phenyl}-1-oxa-8-azaspiro[4.5]decane-8-carboxamide]			(+)	5320 M⁻¹ s⁻¹	5590 M⁻¹ s⁻¹	
Cn1nnnc1NC(=O)N1CCC2(CC1)C[C@@H](c1ccc(OCc3cccc(F)c3)cc1)CO2 [Example 87, (3S)-3-{4-[(3-fluorobenzyl)oxy]phenyl}-N-(1-methyl-1H-tetrazol-5-yl)-1-oxa-8-azaspiro[4.5]decane-8-carboxamide]			(+)	4110 M⁻¹ s⁻¹	15900 M⁻¹ s⁻¹	
Cn1nnnc1NC(=O)N1CCC2(CC1)C[C@H](c1cccc(Oc3ccc(Cl)cn3)c1)CO2 [Example 81, 3-{3-[(5-chloropyridin-2-yl)oxy]phenyl}-N-(1-methyl-1H-tetrazol-5-yl)-1-oxa-8-azaspiro[4.5]decane-8-carboxamide]			(+)	11200 M⁻¹ s⁻¹	4890 M⁻¹ s⁻¹	
Cn1nnnc1NC(=O)N1CCC2(CC1)CC(c1cccc(C(F)(F)F)c1)CO2 (single isomer, unassigned) [Example 94, N-(1-methyl-1H-tetrazol-5-yl)-3-[3-(trifluoromethyl)phenyl]-1-oxa-8-azaspiro[4.5]decane-8-carboxamid]	2110 M⁻¹ s⁻¹	3760 M⁻¹ s⁻¹	(+)			
Cn1nnnc1NC(=O)N1CCC2(CC1)C[C@H](c1ccc(OCc3ccc(C(F)(F)F)cn3)cc1)CO2 [Example 95, (3R)—N-(1-methyl-1H-tetrazol-5-yl)-3-(4-{[5-(trifluoromethyl)pyridin-2-yl]methoxy}phenyl)-1-oxa-8-azaspiro[4.5]decane-8-carboxamide]			(+)	30300 M⁻¹ s⁻¹	21500 M⁻¹ s⁻¹	
O=C(Nc1cccnn1)N1CCC2(CC1)CC(c1cccc(Oc3ccc(C(F)(F)F)cn3)c1)CO2 (racemic) [Example 1, (3RS)—N-pyridazin-3-yl-3-(3-{[5-(trifluoromethyl)pyridin-2-yl]oxy}phenyl)-1-oxa-8-azaspiro[4.5]decane-8-carboxamide]				1880 M⁻¹ s⁻¹	3130 M⁻¹ s⁻¹	(+)^d
Cc1noc(NC(=O)N2CCC3(CC2)CC(c2cc(F)cc(Cl)c2)CO3)c1C (single isomer, unassigned) [Example 39, 3-(3-chloro-5-fluorophenyl)-N-(3,4-dimethylisoxazol-5-yl)-1-oxa-8-azaspiro[4.5]decane-8-carboxamide]	1510 M⁻¹ s⁻¹		(+)		1810 M⁻¹ s⁻¹	
